Measured values taken from the supplement of paper PMC10307832.

Experiments:
Assay in all cases: relative viability (nuclei count vs DMSO), 5 days (fraction); higher = more cells survive
[1] = compound: C1CC2=C(C1)C=C(C=C2)OC3=NC(=C4C(=N3)N(C=N4)CC5=CC=C(C=C5)C6=CC=CC=C6)N[C@@H](CC7=CC=CC=C7)CO [QS11] + C[C@@H](Oc1cc(-c2cnn(C3CCNCC3)c2)cnc1N)c1c(Cl)ccc(F)c1Cl [Crizotinib] (partner 1 µM)
In short: (§1)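 After 5 days of treatment, lung cancer cells in 1536-well plates were fixed and stained in a single step (final 0.05% Triton X-100, 1% formaldehyde, 1 ug/ml Hoechst) and their nuclei counted on 4× images. Treatment had been applied by pin tool the day after seeding as one drug alone or as a fixed anchor-drug dose with five library-drug doses (not always all listed) in √10 steps. Relative viability is the nuclei count of treated wells divided by that of vehicle wells, and values are medians of duplicate plates.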

[2] = compound: C1CC2=C(C1)C=C(C=C2)OC3=NC(=C4C(=N3)N(C=N4)CC5=CC=C(C=C5)C6=CC=CC=C6)N[C@@H](CC7=CC=CC=C7)CO [QS11] + O=C(CCCCCCC(=O)Nc1ccccc1)NO [Vorinostat] (partner 1 µM)
In short: as §1

[3] = compound: C[As](C)SC[C@H](NC(=O)CC[C@H](N)C(=O)O)C(=O)NCC(=O)O [Darinaparsin] + CC1(C)CCC(c2ccc(Cl)cc2)=C(CN2CCN(c3ccc(C(=O)NS(=O)(=O)c4ccc(N[C@H](CCN5CCOCC5)CSc5ccccc5)c(S(=O)(=O)C(F)(F)F)c4)cc3)CC2)C1 [Navitoclax] (partner 0.5 µM)
In short: as §1

[4] = compound: C[As](C)SC[C@H](NC(=O)CC[C@H](N)C(=O)O)C(=O)NCC(=O)O [Darinaparsin] + O=C(c1cc(Cc2n[nH]c(=O)c3ccccc23)ccc1F)N1CCN(C(=O)C2CC2)CC1 [Olaparib] (partner 8 µM)
In short: as §1

| Cell Line | relative viability ([1]; first compound 0.08 µM) | relative viability ([1]; first compound 0.253 µM) | relative viability ([1]; first compound 0.8 µM) | relative viability ([1]; first compound 2.53 µM) | relative viability ([1]; first compound 8 µM) | relative viability ([2]; first compound 0.08 µM) | relative viability ([2]; first compound 0.253 µM) | relative viability ([2]; first compound 0.8 µM) | relative viability ([2]; first compound 2.53 µM) | relative viability ([2]; first compound 8 µM) | relative viability ([3]; first compound 0.08 µM) | relative viability ([3]; first compound 0.8 µM) | relative viability ([3]; first compound 2.53 µM) | relative viability ([3]; first compound 8 µM) | relative viability ([4]; first compound 0.08 µM) | relative viability ([4]; first compound 0.8 µM) | relative viability ([4]; first compound 2.53 µM) | relative viability ([4]; first compound 8 µM) |
| --- | --- | --- | --- | --- | --- | --- | --- | --- | --- | --- | --- | --- | --- | --- | --- | --- | --- | --- |
| 201T | 1.04 | 1.07 | 0.778 | 1.03 | 0.947 | 0.937 | 0.995 | 0.797 | 0.866 | 0.668 | 1.21 | 1.15 | 1.19 | 1.12 | 0.942 | 0.851 | 0.803 | 0.863 |
| A549 | 0.791 | 0.773 | 0.613 | 0.483 | 0.522 |  |  |  |  |  | 1.42 | 1.29 | 1.16 | 1.33 | 0.416 | 0.337 | 0.31 | 0.471 |
| A-427 | 0.779 | 0.885 |  | 0.829 | 0.821 | 0.902 | 0.844 |  | 0.877 | 0.844 | 0.961 | 1 | 1.03 | 0.98 | 0.71 | 0.8 | 0.787 | 0.791 |
| ABC-1 | 0.942 | 1.18 | 0.959 | 0.913 | 0.912 | 0.886 | 0.834 | 1.02 | 0.931 | 1.11 |  |  |  |  | 1.14 | 0.99 | 1.02 | 1.08 |
| BEN | 0.801 | 1.06 | 0.978 | 0.736 | 1.09 | 0.568 | 0.528 | 0.528 | 0.688 | 0.647 | 0.0561 | 0.0673 | 0.0517 | 0.0548 | 1.21 | 0.993 | 1.06 | 1.08 |
| CAL-12T | 0.579 | 0.733 | 0.626 | 0.394 | 0.512 | 0.867 | 0.915 | 0.713 | 0.983 | 0.704 | 1.48 | 1.11 | 1.27 | 1.37 | 0.875 | 0.617 | 0.822 | 0.698 |
| COR-L23 | 0.672 | 0.642 | 0.481 | 0.447 | 0.481 | 0.397 | 0.334 | 0.469 | 0.301 | 0.282 | 1.38 | 1.12 | 0.945 | 1.16 | 0.331 | 0.323 | 0.316 | 0.358 |
| COR-L 105 | 1.04 | 0.735 | 0.616 | 0.618 | 0.702 | 0.838 | 1.03 | 0.665 | 0.794 | 0.716 | 0.883 | 0.709 |  | 0.82 | 0.747 | 0.695 | 0.758 | 0.69 |
| Calu-6 | 0.907 | 0.914 | 0.728 | 0.952 | 0.828 |  |  |  |  |  | 1.13 | 0.921 | 0.752 | 0.745 | 0.592 | 0.59 | 0.594 | 0.556 |
| ChaGo-K-1 |  | 1.24 | 1.26 | 0.957 | 1.23 |  | 0.799 | 0.935 | 0.767 | 0.745 | 1.19 | 0.905 | 1.05 | 0.956 | 0.469 | 0.417 | 0.385 | 0.401 |
| EBC-1 | 0.19 | 0.203 | 0.206 | 0.224 | 0.238 |  |  |  |  |  | 0.4 | 0.351 | 0.375 | 0.352 | 0.811 | 0.731 | 0.603 | 0.511 |
| EKVX | 1.13 | 1.03 |  | 0.749 | 1.2 | 0.642 | 0.625 | 0.592 | 0.567 | 0.545 | 1.14 | 0.825 | 0.918 | 1.15 | 0.878 | 0.697 | 0.801 | 0.735 |
| EMC-BAC-2 | 0.892 | 0.75 | 0.529 | 0.741 | 0.541 | 0.492 | 0.434 | 0.385 | 0.334 | 0.325 | 1.24 | 1.14 | 1 | 1.72 | 0.475 | 0.447 | 0.614 | 0.461 |
| EPLC-272H | 0.861 | 0.962 | 1.03 | 0.835 | 1.13 | 0.371 | 0.55 | 0.442 | 0.479 | 0.276 | 1.26 | 1.37 | 1.07 | 0.983 | 0.659 | 0.958 | 0.514 | 0.615 |
| H3255 | 0.869 | 0.973 |  | 1.02 | 0.847 | 0.763 | 0.947 |  | 0.758 | 0.861 | 0.542 | 0.513 | 0.458 | 0.674 | 0.644 | 0.518 | 0.606 | 0.632 |
| HARA | 1.11 | 1.1 |  | 1.1 | 1.04 | 0.498 | 0.565 |  | 0.506 | 0.431 | 1.39 | 1.07 | 1.08 | 1.37 | 0.598 |  | 0.769 | 0.779 |
| HCC-15 | 0.807 | 0.927 |  | 0.803 | 0.779 | 0.861 | 0.944 | 0.651 | 0.84 | 0.648 | 0.893 | 0.7 | 0.651 | 0.83 | 0.762 | 0.712 | 0.738 | 0.722 |
| HCC-44 | 0.868 | 0.729 | 0.577 | 0.688 | 0.519 | 1.14 | 1.05 | 0.557 | 0.98 | 1.01 | 1.18 | 1 | 0.864 | 1.19 | 1.06 | 0.993 | 0.942 | 1.03 |
| HCC-78 | 0.326 | 0.342 | 0.289 | 0.325 | 0.331 | 0.4 | 0.48 | 0.518 | 0.46 | 0.444 | 0.841 | 0.729 | 0.842 | 0.84 | 0.884 | 0.712 | 0.851 | 0.955 |
